Data on eight molecules can be found in patent publication US20230098438A1, “OXAZINE-BASED WATER-SOLUBLE FLUOROPHORE COMPOUNDS FOR IN VIVO NERVE IMAGING” (Oregon Health & Science University, priority 2020, published 2023).

Entries after “also recorded” stand apart in the source; their conditions may differ.

The nature of series [1]: NOAEL (no-observed-adverse-effect-level).
Series [2] can be described thus: Solubility testing in ultrapure water. Conditions: kinetic from dmso stock.
Method: Each compound was dissolved at high concentration (50 mg/mL) in dimethyl sulfoxide (DMSO) to create a stock solution. Stock solutions were spiked into ultrapure water beginning with a 50 μg/mL concentration and the aqueous solution was vortexed to mix. Resulting solutions were centrifuged at 15,000 rpm for 2 min and examined for a pellet or precipitation signifying insoluble compound.
The subject of another series is nerve tissue. Conditions: previous studies; fluorescence nerve imaging; cited from earlier work.
The mark [3] stands for this setting: no-observed-adverse-effect-level.

“N-(7-(ethylamino)-8-methyl-3H-phenoxazin-3-ylidene)-2-methoxy-N-(2-methoxyethyl)ethan-1-aminium [Example No. 5]”: the “NOAEL” value in series [1] (setting [3]) worked out at 4 mg/kg.

In the case of `CCNc1cc2oc3c/c(=[N+](\CC)CCCS(=O)(=O)[O-])ccc-3nc2cc1C` [Example No. 1, (E)-3-(ethyl(7-(ethylamino)-8-methyl-3H-phenoxazin-3-ylidene)ammonio)propane-1-sulfonate], the NOAEL in series [1] (in vivo) was 30 mg/kg. In series [2], this molecule yielded a solubility above 5000 µg/mL.

Consider “(E)-N^1-ethyl-N^1-(7-(ethylamino)-8-methyl-3H-phenoxazin-3-ylidene)-N^3,N^3,N^3-trimethylpropane-1,3-diaminium [Example No. 2]”, for which, in series [1] (setting [3]), the “NOAEL” value came out at 2 mg/kg.

Consider `CCNc1cc2oc3cc(=[N+](CC)CC)ccc-3nc2cc1C` [Comparative Example No. 1, 3-(diethyl-λ4-azaneylidene)-N-ethyl-8-methyl-3H-phenoxazin-7-amine, reference compound], for which the nerve specificity entry with nerve tissue is on record as “high nerve specificity”. In series [1] (in vivo), the no-observed-adverse-effect level (NOAEL) amounted to 3 mg/kg. The solubility in series [2] turned out to be 100 µg/mL.

For “(E)-N-ethyl-N-(7-(ethylamino)-8-methyl-3H-phenoxazin-3-ylidene)-2-(2-(2-methoxyethoxy)ethoxy)ethan-1-aminium [Example No. 7]”, in series [1] (setting [3]), the “NOAEL” value was found to be 5 mg/kg.

`CCNc1cc2oc3cc(=[N+](CCOCCOCCOC)CCOCCOCCOC)ccc-3nc2cc1C` [Example No. 9, N-(7-(ethylamino)-8-methyl-3H-phenoxazin-3-ylidene)-2-(2-(2-methoxyethoxy)ethoxy)-N-(2-(2-(2-methoxyethoxy)ethoxy)ethyl)ethan-1-aminium] returned an NOAEL in series [1] (in vivo) of 30 mg/kg. Besides, in series [2], the solubility was above 5000 µg/mL.

With “N-(7-(ethylamino)-8-methyl-3H-phenoxazin-3-ylidene)-2-(2-methoxyethoxy)-N-(2-(2-methoxyethoxy)ethyl)ethan-1-aminium [Example No. 8]”, in series [1] (setting [3]), the “NOAEL” value came to 10 mg/kg.

On to `CC/N=c1/cc2oc3cc(NCC)c(C)cc3nc-2cc1C` [Oxazine 4], for which, in the series with nerve tissue, the nerve specificity entry is reported as “high nerve-specificity; also recorded: high nerve specificity”.

As a reminder, the NOAEL is the highest tested level that showed no adverse finding. The term solubility denotes how much of the substance goes into solution per volume. Low values mean a poorly soluble substance, high ones a readily soluble substance.
